Results reported in the NIST ThermoML archive (doi:10.1021/je1003065).

Assay: mn = molality of the nth substance listed, in mol/kg
Details: Liquid, Vibrating tube method

[Br-].[Li+] [lithium bromide] + CCO
Details	mass density [kg/m3]
298.15 K, 60024 kPa, m1 = 0.9499	885.07
298.15 K, 69784 kPa, m1 = 0.2335	847.83
298.15 K, 69784 kPa, m1 = 0.9499	890.31
298.15 K, 69931 kPa, m1 = 0.5972	869.87
298.15 K, 69993 kPa, m1 = 1.462	920.05
298.15 K, 79215 kPa, m1 = 0.9499	895.14
298.15 K, 79970 kPa, m1 = 2.272	969.11
298.15 K, 80014 kPa, m1 = 2.833	998.77
298.15 K, 80151 kPa, m1 = 0.5972	875.11
298.15 K, 89921 kPa, m1 = 0.2335	857.88
298.15 K, 89926 kPa, m1 = 0.9499	900.43
298.15 K, 89927 kPa, m1 = 2.833	1003.47
298.15 K, 89963 kPa, m1 = 0.5972	879.79
298.15 K, 99468 kPa, m1 = 0.2335	862.11
298.15 K, 99739 kPa, m1 = 1.462	933.99
298.15 K, 99874 kPa, m1 = 0.5972	884.17
298.15 K, 99968 kPa, m1 = 2.833	1008.08
298.15 K, 99975 kPa, m1 = 0.9499	905.24
298.16 K, 1341 kPa, m1 = 1.462	876.32
298.16 K, 9986 kPa, m1 = 2.833	958.39
298.16 K, 20192 kPa, m1 = 0.5972	838.95
298.16 K, 39784 kPa, m1 = 0.2335	830.01
298.16 K, 49924 kPa, m1 = 2.833	983.25
298.16 K, 89994 kPa, m1 = 1.462	929.76
298.17 K, 9947 kPa, m1 = 1.462	882.69
298.17 K, 59942 kPa, m1 = 0.2335	842.36
298.17 K, 69994 kPa, m1 = 3.368	1020.58
298.17 K, 80053 kPa, m1 = 1.462	925.1
298.18 K, 2703 kPa, m1 = 3.368	980.82
298.18 K, 5041 kPa, m1 = 3.368	982.47
298.18 K, 5165 kPa, m1 = 2.272	925.09
298.18 K, 9642 kPa, m1 = 2.272	928.25
298.18 K, 9735 kPa, m1 = 3.368	985.72
298.18 K, 9947 kPa, m1 = 0.5972	831.46
298.18 K, 19511 kPa, m1 = 3.368	992.17
298.18 K, 29936 kPa, m1 = 3.368	998.66
298.18 K, 40157 kPa, m1 = 3.368	1004.65
298.18 K, 49943 kPa, m1 = 3.368	1010.11
298.19 K, 2166 kPa, m1 = 2.272	922.88
298.19 K, 20358 kPa, m1 = 1.462	890.05
298.2 K, 20184 kPa, m1 = 2.272	935.31
298.2 K, 59916 kPa, m1 = 3.368	1015.42
313.09 K, 4759 kPa, m1 = 0.5972	815.39
313.11 K, 1319 kPa, m1 = 2.272	910.08
313.11 K, 2109 kPa, m1 = 1.462	864.85
313.11 K, 4863 kPa, m1 = 2.272	912.94
313.11 K, 9792 kPa, m1 = 0.5972	819.49
313.13 K, 5147 kPa, m1 = 1.462	867.25
313.13 K, 19554 kPa, m1 = 0.5972	827.15
313.14 K, 5102 kPa, m1 = 2.833	943.28
313.14 K, 9982 kPa, m1 = 2.272	916.81
313.14 K, 19956 kPa, m1 = 0.2335	804.92
313.14 K, 20135 kPa, m1 = 2.272	924.35
313.14 K, 29993 kPa, m1 = 2.272	931.18
313.14 K, 40450 kPa, m1 = 2.272	937.95
313.14 K, 50014 kPa, m1 = 0.2335	826.45
313.14 K, 59926 kPa, m1 = 2.833	978.99
313.15 K, 1021 kPa, m1 = 2.833	940.06
313.15 K, 1045 kPa, m1 = 0.9499	833.87
313.15 K, 2012 kPa, m1 = 0.2335	789.9
313.15 K, 5003 kPa, m1 = 0.9499	837.08
313.15 K, 5028 kPa, m1 = 0.2335	792.77
313.15 K, 9909 kPa, m1 = 1.462	870.96
313.15 K, 9978 kPa, m1 = 2.833	947
313.15 K, 9985 kPa, m1 = 0.9499	841.04
313.15 K, 19924 kPa, m1 = 0.9499	848.66
313.15 K, 19994 kPa, m1 = 1.462	878.53
313.15 K, 29451 kPa, m1 = 2.833	960.7
313.15 K, 29924 kPa, m1 = 0.2335	812.49
313.15 K, 29935 kPa, m1 = 0.9499	855.96
313.15 K, 29958 kPa, m1 = 0.5972	834.89
313.15 K, 29979 kPa, m1 = 1.462	885.66
313.15 K, 39844 kPa, m1 = 0.5972	841.83
313.15 K, 40021 kPa, m1 = 0.9499	862.92
313.15 K, 49925 kPa, m1 = 1.462	898.82
313.15 K, 49925 kPa, m1 = 2.272	943.67
313.15 K, 49963 kPa, m1 = 0.5972	848.54
313.15 K, 49968 kPa, m1 = 2.833	973.38
313.15 K, 50035 kPa, m1 = 0.9499	869.45
313.15 K, 59623 kPa, m1 = 1.462	904.69
313.15 K, 59831 kPa, m1 = 0.5972	854.67
313.15 K, 60002 kPa, m1 = 0.2335	832.74
313.15 K, 60047 kPa, m1 = 0.9499	875.6
313.15 K, 69784 kPa, m1 = 0.9499	881.21
313.15 K, 69784 kPa, m1 = 2.833	984.26
313.15 K, 69928 kPa, m1 = 1.462	910.56
313.15 K, 69997 kPa, m1 = 0.5972	860.59
313.15 K, 79828 kPa, m1 = 0.5972	865.9
313.15 K, 79877 kPa, m1 = 1.462	915.87
313.15 K, 79935 kPa, m1 = 0.9499	886.68
313.15 K, 80042 kPa, m1 = 0.2335	844.05
313.15 K, 89924 kPa, m1 = 0.2335	848.99
313.15 K, 89925 kPa, m1 = 2.833	994.32
313.15 K, 89926 kPa, m1 = 1.462	920.86
313.15 K, 89986 kPa, m1 = 0.9499	891.71
313.15 K, 89993 kPa, m1 = 0.5972	870.99
313.15 K, 99841 kPa, m1 = 0.5972	875.52
313.15 K, 99954 kPa, m1 = 0.9499	896.31
313.15 K, 99985 kPa, m1 = 0.2335	853.58
313.15 K, 99985 kPa, m1 = 2.833	999.09
313.16 K, 10023 kPa, m1 = 0.2335	796.94
313.16 K, 19926 kPa, m1 = 2.833	954.23
313.16 K, 39715 kPa, m1 = 1.462	892.26
313.16 K, 40032 kPa, m1 = 0.2335	819.73
313.16 K, 59995 kPa, m1 = 2.272	949.4
